Test results as given in US11207331B2, “Agents, compositions and methods for enhancing neurological function” (University of Southern California, priority 2007, dated 2021).

How the values were obtained:
[1] = tested on: hippocampal neural cells; assay: Mitotic appearance (doublet cell body) of cultured hippocampal neural cells; format: cell-based, rat
Protocol: Hippocampal neural cells were obtained from an embryonic day 18 rat hippocampus. The samples contained approximately 12,000 neurons/sample. The sample was 95% neuronal. No selection for neuronal subtypes was conducted. Hippocampal neurons were treated with 3α-hydroxy-5α-pregnan-20-one (THP). 3α-hydroxy-5α-pregnan-20-one (THP) was added to two samples containing hippocampal neural cells at a concentration of either 10 nanomolar (nM) and 100 nanomolar (nM). The cells were incubated for 24 hrs at 37° C. Neurons were grown in a defined medium, Neurobasal+B27 supplement in the absence (control) or presence of THP or other test molecule (experimental). The samples with added THP were compared with a control sample containing only hippocampal neural cells. Changes in the mitotic appearance of the neural cells were observed. A mitotic appearance of a particular neural cell is defined as a doublet form in the cell body of the neural cell. The doublet form is indicative of a neural cell undergoing mitosis.
The experiment described above was repeated only THP was added to three samples containing hippocampal neural cells at a concentration of 100 nanomolar (nM), 250 nM and 500 nM. The samples with added THP were compared with a control sample containing only hippocampal neural cells. […] Data are expressed as percent of mean+SEM,**p<0.01, ***p<. 001.

[2] = tested on: hippocampal neurons; assay: Expression of cell proliferating markers Ki-67 and cdc2 in hippocampal neurons; format: cell-based, rat
Excerpt: Expression of cell cycle proteins have been successfully used to evaluate cellular proliferation. One such protein is the nuclear proliferation protein, Ki-67, which is expressed during the G1, S, G2, and M phases of the cell cycle, but is not expressed during the Go (resting) phase. Because Ki-67 antigen has a short half-life, it can be used as a marker of actively proliferating cells. Another cell cycle protein is cell division control protein 2 (cdc2) which is a cyclin dependent kinase (also called CDK1) which plays a crucial role in the G1/S and G2/M phase. If THP induces neuronal proliferation, cell proliferation markers should be elevated.
Hippocampal neurons were treated with THP at a concentration of 250 nM for 72 hours and immunostained with antibodies for the nuclear proliferation marker, ki-67 antigen, which appears yellow. […] The cell cycle protein cdc2 is also observed in a dose dependent fashion (see FIG. 4).
For this experiment, neurons were collected following 24 hrs of THP exposure. Forty μg protein of the total cell lysate was loaded and separated by 12% SDS-gel using antibody (Ahcom) specifically against cdc2- and analyzed using Un-Scan-It image software (Ilk Scientific Corp.).

[3] = tested on: mouse hippocampal neuron cell line (HT-22); assay: FACS of MuLV-GFP infected HT-22 cells; format: cell-based; conditions: THP 250 nM
Protocol: Having determined that THP increases the expression of the cell proliferating markers, a determination was sought as to whether the increase in cell proliferation markers translated into an increase in neuronal number. […] As shown in FIGS. 6A-6C, THP increases neuron number as assessed in MuLV-GFP infected mouse neurons. The effect of THP on HT-22 cells proliferation was detected on MuLV infected cells.
FIG. 6C summarizes the FACS results. V=vehicle; THP (250 nM).

[4] = tested on: Beta amyloid binding alcohol dehydrogenase (ABAD); assay: ABAD expression (Western blot, antibody ERAB); format: in vivo, mouse
Protocol: (§1) Further studies were conducted using a dosing regime of once a week for six months administered subcutaneously. Three and six months old 3×Tg-AD and age-matched non-Tg mice were chosen for the experiments, since AD pathology (Aβ) starts development at 3-month and abundant accumulation at 6-months. Allopregnanolone was subcutaneously (s.c.) administrated with 10 mg/kg once per week for 6 months. For neurogenesis and neurosurvival study, BrdU, IdU and CIdU were intraperitoneal (i.p.) injected at the first 5 days, mid 5 days and 5 days before sacrifice during 6-month treatment. After 6 months of allopregnanolone treatment, mice, at 9- and 12-month old, were sacrificed.
Beta amyloid binding alcohol dehydrogenase (ABAD) was probed with antibody ERAB (1:500, Abcam). […] Immunofluorescent staining using goat polyclonal anti-ERAB (Santa Cruz) confirmed the results obtained by Western Blot analysis. The concentration of ABAD immunoactive cells is less in THP-treated brains than in the brains treated with the vehicle.

[5] = tested on: reactive microglial cells; assay: Microglial reaction (OX42 Western blot, Iba1 staining); format: in vivo, mouse
Protocol: as §1
Western blot analysis was conducted with rabbit polyclonal anti-CD11b/c (OX42) which recognizes reactive microglial cells.

CC(=O)[C@H]1CC[C@H]2[C@@H]3CC[C@H]4C[C@H](O)CC[C@]4(C)[C@H]3CC[C@]12C [THP, 3α-hydroxy-5α-pregnan-20-one]
fold increase in the mitotic phenotype of the neural cells vs control ([1]; 10 nM or 100 nM THP, 24 hrs): ~2 fold | concentration with greatest induction of the mitotic phenotype ([1]; 100, 250, 500 nM tested): 500 nm | fold increase in the mitotic phenotype of the neural cells vs control ([1]; 100, 250 and 500 nM THP): 2-3 fold | expression of nuclear proliferation marker Ki-67 ([2]; 250 nM, 72 hours, immunostaining): induces the expression of the nuclear proliferation marker Ki-67 | expression of cdc2 ([2]; 250 or 500 nM, 24 hrs, Western blot): increases expression of cell division control protein 2 (cdc2) | increase in dividing cell number [3]: 22% | decrease in ABAD level relative to vehicle ([4]; 9-month 3×Tg mice): 30±4% | decrease in ABAD level relative to vehicle ([4]; 12-month 3×Tg mice): 20±7% | anti-CD11b/c (OX42) band intensities ([5]; 9-month and 12-month 3×Tg): no significant differences | anti-Iba1 immunofluorescent staining ([5]; hippocampal CA1): lower levels of immunoactivity in THP-treated hippocampal CA1
